Among the data in ChEMBL document CHEMBL4196012 (Eur J Med Chem, 2018) are MIC, EC50 and Ratio values, retold here.

The test system of experiment [1] is Streptococcus pneumoniae. Briefly: Antibacterial activity against quinolone-resistant Streptococcus pneumoniae after 16 to 20 hrs by NCCLS microdilution method. Format: functional. (In general: Dilution methods test growth across graded concentrations, often in twofold steps.)
Experiment [2] concerns Staphylococcus epidermidis. In words: Antibacterial activity against Staphylococcus epidermidis ATCC 12228 by agar dilution method. Format: functional. On the technique in general: In agar dilution the substance is mixed into plates at graded concentrations.
The test system of experiment [3] is Escherichia coli. In words: In vivo antibacterial activity against Escherichia coli NCTC 10419 infected in po dosed mouse administered at 1 and 4 hrs post infection. Format: functional, organism-based.
In the next experiment the test system is Bacillus subtilis. In words: Antibacterial activity against Bacillus subtilis PTCC 1023 by agar dilution method. The class given is functional.
In experiment [4] the test system is Escherichia coli. In words: microbe, parasite or virus in culture. The following applies: NCTC 10419.
Experiment [5] has as its system Staphylococcus aureus. In words: Antibacterial activity against quinolone-resistant Staphylococcus aureus after 16 to 20 hrs by NCCLS microdilution method. The class given is functional.
The subject of a further experiment is Enterococcus faecium. Briefly: Antibacterial activity against vancomycin and quinolone-resistant Enterococcus faecium after 16 to 20 hrs by NCCLS microdilution method. The class given is functional.
Experiment [6] has as its system Staphylococcus aureus. In words: Antibacterial activity against Staphylococcus aureus ATCC 6538P by agar dilution method. The class given is functional.
Experiment [7] has as its system Pseudomonas aeruginosa. In words: Antibacterial activity against Pseudomonas aeruginosa ATCC 9027 after 18 hrs by agar dilution method. Format: functional. The following applies: ATCC 9027, 18 h.
Experiment [8] has as its system Staphylococcus epidermidis. Briefly: Antibacterial activity against Staphylococcus epidermidis ATCC 12228 after 18 hrs by agar dilution method. The class given is functional. To be noted: ATCC 12228, 18 h.
Another experiment concerns Klebsiella pneumoniae. In words: Antibacterial activity against Klebsiella pneumoniae ATCC 10031 after 18 hrs by agar dilution method. The following applies: ATCC 10031, 18 h. The class given is functional.
The test system of experiment [9] is Staphylococcus aureus. In words: Antibacterial activity against methicillin-resistant Staphylococcus aureus isolate 2 after 18 hrs by agar dilution method. The class given is functional. The following applies: isolate 2, 18 h.
The subject of experiment [10] is Escherichia coli. Briefly: Antibacterial activity against Escherichia coli ATCC 8739 after 18 hrs by agar dilution method. The class given is functional. The following applies: ATCC 8739, 18 h.
For experiment [11], the system named is Staphylococcus aureus. Briefly: Antibacterial activity against methicillin-resistant Staphylococcus aureus isolate 1 after 18 hrs by agar dilution method. The class given is functional. To be noted: isolate 1, 18 h.
The next experiment concerns Bacillus spizizenii. Briefly: Antibacterial activity against Bacillus subtilis ATCC 6633 after 18 hrs by agar dilution method. The class given is functional. The following applies: ATCC 6633, 18 h.
In experiment [12] the test system is Staphylococcus aureus. Briefly: Antibacterial activity against Staphylococcus aureus ATCC 6538p after 18 hrs by agar dilution method. Format: functional.
Experiment [13] has as its system Pseudomonas aeruginosa. Briefly: Antibacterial activity against Pseudomonas aeruginosa after 24 hrs by agar streak dilution method. The class given is functional.
In experiment [14] the test system is Escherichia coli. In words: Potency index, ratio of ciprofloxacin MIC to compound MIC for antibacterial activity against Escherichia coli. The class given is functional.
Experiment [15] deals with Escherichia coli. Briefly: Antibacterial activity against Escherichia coli after 24 hrs by agar streak dilution method. Format: functional.
For experiment [16], the system named is Pseudomonas aeruginosa. In words: Potency index, ratio of ciprofloxacin MIC to compound MIC for antibacterial activity against Pseudomonas aeruginosa. The class given is functional.
Experiment [17] has as its system Staphylococcus aureus. In words: Potency index, ratio of ciprofloxacin MIC to compound MIC for antibacterial activity against vancomycin-insensitive Staphylococcus aureus. The class given is functional.
The test system of experiment [18] is Streptococcus pneumoniae. Briefly: Antibacterial activity against Streptococcus pneumoniae ATCC 49619 after 16 to 20 hrs by NCCLS microdilution method. The class given is functional.
The subject of experiment [19] is Enterococcus faecalis. In words: Antibacterial activity against Enterococcus faecalis ATCC 29212 after 16 to 20 hrs by NCCLS microdilution method. Format: functional.
The test system of experiment [20] is Enterococcus faecalis. Briefly: Antibacterial activity against linezolid-resistant Enterococcus faecalis after 16 to 20 hrs by NCCLS microdilution method. The class given is functional.
The test system of experiment [21] is Staphylococcus aureus. In words: Antibacterial activity against linezolid-resistant Staphylococcus aureus after 16 to 20 hrs by NCCLS microdilution method. The class given is functional.
In a further experiment the test system is Moraxella catarrhalis. Briefly: Antibacterial activity against Moraxella catarrhalis ATCC 8176 after 16 to 20 hrs by NCCLS microdilution method. Format: functional.
The test system of a further experiment is Haemophilus influenzae. Briefly: Antibacterial activity against Haemophilus influenzae 11 after 16 to 20 hrs by NCCLS microdilution method. Format: functional.
The test system of experiment [22] is Staphylococcus aureus. In words: Antibacterial activity against Staphylococcus aureus ATCC 29213 after 16 to 20 hrs by NCCLS microdilution method. The class given is functional.
The test system of experiment [23] is Escherichia coli. In words: Antibacterial activity against Escherichia coli ATCC 25922 after 16 to 20 hrs by NCCLS microdilution method. Format: functional.

Converted amounts (≈) assume the structure as drawn.

In the case of `O=C(O)c1cn(C2CC2)c2cc(N3CCNCC3)c(F)cc2c1=O` [CIPROFLOXACIN], the MIC in the experiment on Streptococcus pneumoniae [1] is ≥ 32 µg/mL; in experiment [2], 0.015 to 0.5 µg/mL (≈ 0.0453 to 1.51 µM); against Bacillus subtilis, 0.015 to 0.5 µg/mL (≈ 0.0453 to 1.51 µM); in the experiment with Escherichia coli [4], 1.1 nM (≈ 0.364 ng/mL); with Staphylococcus aureus [5], ≥ 32 µg/mL; with Enterococcus faecium, ≥ 32 µg/mL. Moreover, the MIC in the experiment with Staphylococcus aureus [6] is 0.015 to 0.5 µg/mL (≈ 0.0453 to 1.51 µM). In addition, the EC50 in the experiment with Escherichia coli [3] stood at 1.25 mg/kg.

Consider `O=C(CN1CCN(c2cc3c(cc2F)c(=O)c(C(=O)O)cn3C2CC2)CC1)c1cc2ccccc2oc1=O`, for which the MIC (in the experiment on Pseudomonas aeruginosa [7]; in experiment [8]; against Klebsiella pneumoniae; in the experiment on Staphylococcus aureus [9]; with Escherichia coli [10]; in the experiment with Staphylococcus aureus [11]) was 0.025 to 1.56 µg/mL (≈ 0.0483 to 3.01 µM) throughout. Besides, the MIC against Bacillus spizizenii and in the experiment on Staphylococcus aureus [12] was 0.025 to 1.56 µg/mL (≈ 0.0483 to 3.01 µM) throughout.

Regarding `CCOc1ccc2nc(C3C(=O)CSC3N3CCN(c4cc5c(cc4F)c(=O)c(C(=O)O)cn5C4CC4)CC3)sc2c1` (configuration not stated), the MIC against Pseudomonas aeruginosa [13] and in the experiment on Escherichia coli [15] was 2 µg/mL (≈ 3.29 µM) in each case. Also, the Ratio with Escherichia coli [14] and in the experiment with Pseudomonas aeruginosa [16] was 3 each time.

Consider `CCn1cc(C(=O)O)c(=O)c2cnc(N3CCN(Cc4ccc(CN5CCN(c6cc7c(cc6F)c(=O)c(C(=O)O)cn7C6CC6)CC5)cc4)CC3)nc21`, for which the Ratio in the experiment on Staphylococcus aureus [17] is recorded as >4.

Regarding `CC(=O)NC[C@H]1CN(c2ccc(N3CCN(c4cc5c(cc4F)c(=O)c(C(=O)O)cn5C4CC4)CC3)c(F)c2)C(=O)O1`, the MIC in the experiment with Streptococcus pneumoniae [1] lay within 0.25 to 0.5 µg/mL (≈ 0.43 to 0.86 µM); with Streptococcus pneumoniae [18], 0.125 to 4 µg/mL (≈ 0.215 to 6.88 µM); against Enterococcus faecalis [19], 0.125 to 4 µg/mL (≈ 0.215 to 6.88 µM); in the experiment with Enterococcus faecalis [20], 0.125 to 4 µg/mL (≈ 0.215 to 6.88 µM); in the experiment on Staphylococcus aureus [21] it was 0.125 to 4 µg/mL (≈ 0.215 to 6.88 µM); in the experiment with Staphylococcus aureus [5] it was 0.25 to 0.5 µg/mL (≈ 0.43 to 0.86 µM). The MIC was 0.125 to 4 µg/mL (≈ 0.215 to 6.88 µM) against Moraxella catarrhalis; 0.125 to 4 µg/mL (≈ 0.215 to 6.88 µM) with Haemophilus influenzae; 0.25 to 0.5 µg/mL (≈ 0.43 to 0.86 µM) with Enterococcus faecium; 0.125 to 4 µg/mL (≈ 0.215 to 6.88 µM) with Staphylococcus aureus [22]; 0.125 to 4 µg/mL (≈ 0.215 to 6.88 µM) in the experiment on Escherichia coli [23].
